Laboratory results taken from patent US20240317721A1, “PYRAZOLYL DERIVATIVES AS INHIBITORS OF THE KRAS MUTANT PROTEIN” (NOVARTIS AG, priority 2021, published 2024).

Target: KRasG12C (M1-K169, biotinylated on the N-terminus) (Homo sapiens (Human), UniProt P01116, G12C)
Assay: Covalent competition assay: scintillation proximity assay (SPA) quantifying covalent modification of KRASG12C
Assay type: binding
Conditions: competition with radiolabeled covalent probe (Compound B/Compound A), 2 hours incubation, 10 nM KRasG12C
Procedure, shortened: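 Scintillation proximity readout after streptavidin bead capture (30 min) of biotinylated KRasG12C(M1-K169):GDP, 10 nM final, which was covalently labelled over 2 h by 25 nM radio-probe plus 475 nM cold probe unless blocked by compound.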

Row | SMILES | IC50
1 | C=CC(=O)N1CC2(CC(n3nc(N4CC[C@@H](CN5CCC56COC6)CC4(C)C)c(-c4c(Cl)c(Cl)cc5[nH]ncc45)c3C)C2)C1 (single isomer, unassigned) [Example 307a] | > 5 µM
2 | C=CC(=O)N1CC2(CC(n3nc(N4CC[C@@H](CN5CCN(C(=O)CO)CC5)CC4(C)C)c(-c4c(Cl)c(Cl)cc5[nH]ncc45)c3C)C2)C1 (single isomer, unassigned) [Example 310a] | 2.9 µM
3 | C=CC(=O)N1CC2(CC(n3nc(N4CC[C@@H](CN5CCN(C(=O)CO)CC5)CC4(C)C)c(-c4c(Cl)c(Cl)cc5[nH]ncc45)c3C)C2)C1 (single isomer, unassigned) [Example 310b] | 0.007 µM
4 | C=CC(=O)N1CC2(CC(n3nc(N4CC[C@@H](CN5CCOC6(C5)CN(C(C)=O)C6)CC4(C)C)c(-c4c(Cl)c(Cl)cc5[nH]ncc45)c3C)C2)C1 (single isomer, unassigned) [Example 311a] | 1.3 µM
5 | C=CC(=O)N1CC2(CC(n3nc(N4CC[C@@H](CN5CCOC6(C5)CN(C(C)=O)C6)CC4(C)C)c(-c4c(Cl)c(Cl)cc5[nH]ncc45)c3C)C2)C1 (single isomer, unassigned) [Example 311b] | 0.018 µM
6 | C=CC(=O)N1CC2(CC(n3nc(N4CC[C@@H](CN5CCN6C(=O)OCC6C5)CC4(C)C)c(-c4c(Cl)c(Cl)cc5[nH]ncc45)c3C)C2)C1 (single isomer, unassigned) [Example 312a] | 0.831 µM
7 | C=CC(=O)N1CC2(CC(n3nc(N4CC[C@@H](CN5CCN6C(=O)OCC6C5)CC4(C)C)c(-c4c(Cl)c(Cl)cc5[nH]ncc45)c3C)C2)C1 (single isomer, unassigned) [Example 312b] | 0.009 µM

Results, then the compound that gave them:

Row | IC50 | SMILES
8 | > 5 µM | C=CC(=O)N1CC2(CC(n3nc(N4CC[C@@H](CN5CCC6COCC65)CC4(C)C)c(-c4c(C)c(Cl)cc5[nH]ncc45)c3C)C2)C1 (single isomer, unassigned) [Example 306a, 1-(6-(4-(6-chloro-5-methyl-1H-indazol-4-yl)-3-((R)-4-(((3aR*,6aR*)-hexahydro-1H-furo[3,4-b]pyrrol-1-yl)methyl)-2,2-dimethylpiperidin-1-yl)-5-methyl-1H-pyrazol-1-yl)-2-azaspiro[3.3]heptan-2-yl)prop-2-en-1-one]
9 | 0.005 µM | C=CC(=O)N1CC2(CC(n3nc(N4CC[C@@H](CN5CCC6COCC65)CC4(C)C)c(-c4c(C)c(Cl)cc5[nH]ncc45)c3C)C2)C1 (single isomer, unassigned) [Example 306b, 1-(6-(4-(6-chloro-5-methyl-1H-indazol-4-yl)-3-((R)-4-(((3aR*,6aR*)-hexahydro-1H-furo[3,4-b]pyrrol-1-yl)methyl)-2,2-dimethylpiperidin-1-yl)-5-methyl-1H-pyrazol-1-yl)-2-azaspiro[3.3]heptan-2-yl)prop-2-en-1-one]
10 | 0.008 µM | C=CC(=O)N1CC2(CC(n3nc(N4CC[C@@H](CN5CCC56COC6)CC4(C)C)c(-c4c(Cl)c(Cl)cc5[nH]ncc45)c3C)C2)C1 (single isomer, unassigned) [Example 307b]
11 | 0.747 µM | C=CC(=O)N1CC2(CC(n3nc(N4CC[C@@H](CN5CC6COCC(C5)O6)CC4(C)C)c(-c4c(Cl)c(Cl)cc5[nH]ncc45)c3C)C2)C1 (single isomer, unassigned) [Example 308a]
12 | 0.01 µM | C=CC(=O)N1CC2(CC(n3nc(N4CC[C@@H](CN5CC6COCC(C5)O6)CC4(C)C)c(-c4c(Cl)c(Cl)cc5[nH]ncc45)c3C)C2)C1 (single isomer, unassigned) [Example 308b]
13 | 0.41 µM | C=CC(=O)N1CC2(CC(n3nc(N4CC[C@@H](CN5CCC[C@H]5C(=O)N(C)C)CC4(C)C)c(-c4c(Cl)c(Cl)cc5[nH]ncc45)c3C)C2)C1 (single isomer, unassigned) [Example 313a]
14 | 0.006 µM | C=CC(=O)N1CC2(CC(n3nc(N4CC[C@@H](CN5CCC[C@H]5C(=O)N(C)C)CC4(C)C)c(-c4c(Cl)c(Cl)cc5[nH]ncc45)c3C)C2)C1 (single isomer, unassigned) [Example 313b]
